Results as given in EP0306251A2, “Azolidinedione derivatives” (PFIZER INC., priority 1987, dated 1989).

Columns and labels:
[1] = target: T1, partially purified aldose reductase enzyme obtained from human placenta (Homo sapiens, UniProt P15121); assay: inhibition of aldose reductase enzyme activity (procedure of Hayman et al., modified by Sestanj et al.); assay type: biochemical; conditions: 10^-5M
T1 construct: partially purified aldose reductase enzyme obtained from human placenta; from tissue; host or cells: human placenta
Description: The following spiro-3-heteroazolone compounds of Examples 4A, 4B, 6-9, 10A, 10B and 14, respectively, were tested for their ability to reduce or inhibit aldose reductase enzyme activity via the procedure of S. Hayman et al., as described in the Journal of Biological Chemistry, Vol. 240, p. 877 (1965) and as modified by K. Sestanj et al. in U.S. Patent No. 3,821,383. In every case, the substrate .employed was partially purified aldose reductase enzyme obtained from human placenta.

[2] = test system: sorbitol accumulation in the sciatic nerve and lens of streptozotocinized (i.e., diabetic) rats; assay: inhibition of sorbitol accumulation in sciatic nerve and lens of streptozotocinized rats; assay type: in vivo; conditions: for Percent Inhibition (%) Lens / Percent Inhibition (%) Sciatic Nerve: sorbitol measured at 27 hours
Description: The following spiro-3-heteroazolone compounds of Examples 4A, 4B, 6 and 10A, respectively, were tested for their ability to reduce or inhibit sorbitol accumulation in the sciatic nerve and lens of streptozotocinized (i.e., diabetic) rats by the procedure essentially described in U.S. Patent No. 3,821,383. In the present study, the amount of sorbitol accumulation in the sciatic nerve and lens of each test animal was measured 27 hours after induction of diabetes. The compounds were then administered orally at the dose levels indicated at 4, 8 and 24 hours following the administration of streptozotocin. The results obtained in this manner are presented below in terms of percent inhibition (%) afforded by the test compound as compared to the case where no compound was administered (i.e., the untreated animal where sorbitol levels normally rise from approximately 50-100 mM/g. tissue to as high as 400 mM/g. tissue in the 27-hour test period): […]

[3] = 0.25 mg./kg. orally at 4, 8 and 24 hours after streptozotocin
[4] = 5.0 mg./kg. orally at 4, 8 and 24 hours after streptozotocin
[5] = 1.0 mg./kg. orally at 4, 8 and 24 hours after streptozotocin
[6] = 0.1 mg./kg. orally at 4, 8 and 24 hours after streptozotocin

C[C@@H]1C[C@]2(NC(=O)NC2=O)c2cc(Cl)cnc2O1 (racemic) [Product of Example 4A, (±)-cis-8'-chloro-2',3'-dihydro-2'-methyl-spiro-[imidazolidine-4,4'-4'H-pyrano[2,3-b]pyridine]-2,5-dione]
inhibition at 10 µM [1]: 83%
Percent Inhibition (%) Lens [2, 3]: 22%
Percent Inhibition (%) Lens [2, 4]: 89%
Percent Inhibition (%) Sciatic Nerve [2, 3]: 34%
Percent Inhibition (%) Sciatic Nerve [2, 4]: 98%

CC1CC2(NC(=O)NC2=O)c2cc(Cl)cnc2O1 (racemic) [Product of Example 4B, (±)-trans-6'-chloro-2',3'-dihydro-2'-methyl-spiro-[imidazolidine-4,4'-4'H-pyrano[2,3-b]pyridine]-2,5-dione]
inhibition at 10 µM [1]: 77%
Percent Inhibition (%) Lens [2, 3]: 32%
Percent Inhibition (%) Sciatic Nerve [2, 3]: 13%

C[C@@H]1C[C@]2(NC(=O)NC2=O)c2cc(Br)cnc2O1 (racemic) [Product of Example 6, (±)-cis-6'-bromo-2',3'-dihydro-2'-methyl-spiro-[imidazolidine-4,4'-4'H-pyrano[2,3-b]pyridine]-2,5-dione]
inhibition at 10 µM [1]: 80%
Percent Inhibition (%) Lens [2, 5]: 67%
Percent Inhibition (%) Sciatic Nerve [2, 5]: 73%

O=C1NC(=O)C2(CCOc3ncc(Cl)cc32)N1 (racemic) [Product of Example 7, (±)-6-chloro-2',3'-dihydro-spiro-[imidazolidine-4,4'-4'H-pyrano[2,3-b]pyridine]-2,5-dione]
inhibition at 10 µM [1]: 60%

C[C@@H]1C[C@]2(NC(=O)NC2=O)c2cccnc2O1 (racemic) [Product of Example 8, (±)-cis-2',3'-dihydro-2'methyl-spiro-[imidazolidine-4, 4'-4'H-pyrano[2,3-b]pyridine]-2,5-dione]
inhibition at 10 µM [1]: 57%

C[C@@H]1C[C@]2(NC(=O)NC2=O)c2cc(F)cnc2O1 (racemic) [Product of Example 9, (±)-cis-6'-fluoro-2',3'-dihydro-2'-methyl-spiro-[imidazolidine-4,4'-4H-pyrano-[2,3-b]pyridine]-2,5-dione]
inhibition at 10 µM [1]: 77%

C[C@@H]1C[C@]2(NC(=O)NC2=O)c2cc(Cl)cnc2O1 [Product of Example 10A, (4'S)(2'R)-6'-chloro-2',3'-dihydro-2'-methyl-spiro-[imidazolidine-4,4'-4'H-pyrano[2,3-b]pyridine]-2,5-dione]
inhibition at 10 µM [1]: 100%
Percent Inhibition (%) Lens [2, 6]: 33%
Percent Inhibition (%) Lens [2, 5]: 73%
inhibit the formation of sorbitol levels in both the sciatic nerve and lens of diabetic rats ([2]; oral route, dose levels ranging from 0.1-10.0 mg./kg., sciatic nerve and lens): significantly high degree
Percent Inhibition (%) Sciatic Nerve [2, 6]: 43%
Percent Inhibition (%) Sciatic Nerve [2, 5]: 78%

C[C@H]1C[C@@]2(NC(=O)NC2=O)c2cc(Cl)cnc2O1 [Product of Example 10B, (2'S)(4'R)-6'-chloro-2',3^1-dihydro-2'-methyl-spiro-[imidazolidine-4,4'-4'H-pyrano[2,3-b]pyridine]-2,5-dione]
inhibition at 10 µM [1]: 100%

C[C@@H]1C[C@]2(NC(=O)NC2=O)c2cc(Cl)c[n+]([O-])c2O1 [Product of Example 14, (4'S)(2'R)-6'-chloro-2',3'-dihydro-2'-methyl-spiro-[imidazolidine-4,4'-4'H-pyrano[2,3-b]pyridine]-2,5-dione-8'-oxide]
inhibition at 10 µM [1]: 79%
